# US20220112479A1, “COMPOUNDS STABILIZING AMYLASES IN LIQUIDS” (BASF SE, priority 2018, published 2022)
# Columns and labels:
# Savinase Ultra 16.0L = target: T1, Savinase Ultra 16.0L (Lederbergia lenta, UniProt P29600); assay: protease storage stability in liquid formulation (Suc-AAPF-pNA substrate); type: biochemical; settings: 1.5 wt % component (a), storage at 37° C.
# T1 construct: purchased Sigma-Aldrich
# T1 sequence (P29600 1-269): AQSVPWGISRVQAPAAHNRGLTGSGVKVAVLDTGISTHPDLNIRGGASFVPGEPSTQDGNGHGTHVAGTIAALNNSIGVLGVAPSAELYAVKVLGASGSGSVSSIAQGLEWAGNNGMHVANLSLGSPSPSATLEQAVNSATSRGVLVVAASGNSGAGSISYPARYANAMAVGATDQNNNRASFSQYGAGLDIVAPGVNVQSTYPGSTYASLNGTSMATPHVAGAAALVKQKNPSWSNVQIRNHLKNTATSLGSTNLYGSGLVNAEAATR
# Experimental: Base test formulations were manufactured by making base formulations I to V by mixing the components according to Table 1.
# Protease used: (S) Savinase Ultra 16.0L (CAS-No. 9014-01-1, EC-No. 232-752-2) was purchased from Sigma-Aldrich
# The respective component (a) or comparative compound was added, if applicable, to the respective base formulation in amounts as indicated in Table 1.
# The amount of protease as provided in Table 1 refers to active protein.
# Water was added to accomplish the balance to 100.
# Protease activity at certain points in time as indicated in Table 3 was be determined by employing Succinyl-Ala-Ala-Pro-Phe-p-nitroanilide (Suc-AAPF-pNA, short AAPF) as substrate. pNA is cleaved from the substrate molecule by proteolytic cleavage, resulting in release of yellow color of free pNA which was determined by measuring […]. Measurements were done at 20° C.
# The proteolytic activity values provided in Table 3 were calculated referring to the value determined in the reference formulation at the time 0.
# The nomenclature of formulations is as follows: the Roman number before the full stop characterizes the base formulation, the Arabian number the type of salt (A.#inventive salt (component (a)); B.# comparative compound). Zero (“0”): no salt, but diethylene glycol.
# Amylase = assay: amylase storage stability in liquid laundry formulation (pNP release from Ethyliden-blocked-pNPG7); type: biochemical; design: key: % of activity in reference formulation at time 0; settings: 2.5 wt % component (a), storage at 37° C.
# Experimental: The storage stability of amylase was assessed at 37° C.
# Base test formulations were manufactured by making base formulations VI to IX by mixing the components according to Table 4.
# Amylase activity at certain points in time as indicated in Table 5 was measured quantitatively by the release of the chromophore para-nitrophenol (pNP) from the substrate (Ethyliden-blocked-pNPG7, Roche Applied Science 10880078103). The alpha-amylase degrades the substrate into smaller molecules and α-glucosidase (Roche Applied Science 11626329103), which is present in excess compared to the amylase, process these smaller products until pNP is released; the release of pNP, measured via an increase of absorption at 405 nm, is directly proportional to the amylase activity of the sample. Amylase standard: Termamyl 120 L (Sigma 3403).
# The amylolytic activity values provided were calculated referring to the value determined in the reference formulation at the time 0.
# The nomenclature of formulations is as follows: the Roman number before the full stop characterizes the base formulation, the Arabian number the type of compound (A.# compound according to invention (component (a)); B.# comparative compound).
smiles,measurement,setting,value
"CCOC(=O)CC(CC(=O)OCC)(OC(C)=O)C(=O)OCC [A.5, Acetyltriethylcitrate]","protease activity, referring to reference formulation at time 0","Savinase Ultra 16.0L; base formulation I., 3 d",96
same,"protease activity, referring to reference formulation at time 0","Savinase Ultra 16.0L; base formulation I., 7 d",90
same,"protease activity, referring to reference formulation at time 0","Savinase Ultra 16.0L; base formulation I., 14 d",84
same,"protease activity, referring to reference formulation at time 0","Savinase Ultra 16.0L; base formulation I., 21 d",80
same,"protease activity, referring to reference formulation at time 0","Savinase Ultra 16.0L; base formulation I., 28 d",76
same,"protease activity, referring to reference formulation at time 0","Savinase Ultra 16.0L; base formulation I., 42 d",62
same,"protease activity, referring to reference formulation at time 0","Savinase Ultra 16.0L; base formulation I., T0",98
same,"protease activity, referring to reference formulation at time 0","Savinase Ultra 16.0L; base formulation III., 3 d",98
same,"protease activity, referring to reference formulation at time 0","Savinase Ultra 16.0L; base formulation III., 7 d",92
same,"protease activity, referring to reference formulation at time 0","Savinase Ultra 16.0L; base formulation III., 14 d",83
same,"protease activity, referring to reference formulation at time 0","Savinase Ultra 16.0L; base formulation III., 21 d",79
same,"protease activity, referring to reference formulation at time 0","Savinase Ultra 16.0L; base formulation III., 28 d",71
same,"protease activity, referring to reference formulation at time 0","Savinase Ultra 16.0L; base formulation III., 42 d",65
same,"protease activity, referring to reference formulation at time 0","Savinase Ultra 16.0L; base formulation III., T0",100
same,"amylase activity, referring to reference formulation at time 0","Amylase; laundry base formulation IX. (2.5 DTPA), 3 d",91
same,"amylase activity, referring to reference formulation at time 0","Amylase; laundry base formulation IX. (2.5 DTPA), 7 d",78
same,"amylase activity, referring to reference formulation at time 0","Amylase; laundry base formulation IX. (2.5 DTPA), 14 d",69
same,"amylase activity, referring to reference formulation at time 0","Amylase; laundry base formulation IX. (2.5 DTPA), 21 d",61
same,"amylase activity, referring to reference formulation at time 0","Amylase; laundry base formulation IX. (2.5 DTPA), 28 d",53
same,"amylase activity, referring to reference formulation at time 0","Amylase; laundry base formulation IX. (2.5 DTPA), T0",98
same,"amylase activity, referring to reference formulation at time 0","Amylase; laundry base formulation VII. (2.0 EDTA), 3 d",92
same,"amylase activity, referring to reference formulation at time 0","Amylase; laundry base formulation VII. (2.0 EDTA), 7 d",81
same,"amylase activity, referring to reference formulation at time 0","Amylase; laundry base formulation VII. (2.0 EDTA), 14 d",72
same,"amylase activity, referring to reference formulation at time 0","Amylase; laundry base formulation VII. (2.0 EDTA), 21 d",66
same,"amylase activity, referring to reference formulation at time 0","Amylase; laundry base formulation VII. (2.0 EDTA), 28 d",61
same,"amylase activity, referring to reference formulation at time 0","Amylase; laundry base formulation VII. (2.0 EDTA), T0",98
same,"amylase activity, referring to reference formulation at time 0","Amylase; laundry base formulation VIII. (2.5 DTPA, no Savinase), 3 d",93
same,"amylase activity, referring to reference formulation at time 0","Amylase; laundry base formulation VIII. (2.5 DTPA, no Savinase), 7 d",83
same,"amylase activity, referring to reference formulation at time 0","Amylase; laundry base formulation VIII. (2.5 DTPA, no Savinase), 14 d",74
same,"amylase activity, referring to reference formulation at time 0","Amylase; laundry base formulation VIII. (2.5 DTPA, no Savinase), 21 d",67
same,"amylase activity, referring to reference formulation at time 0","Amylase; laundry base formulation VIII. (2.5 DTPA, no Savinase), 28 d",64
same,"amylase activity, referring to reference formulation at time 0","Amylase; laundry base formulation VIII. (2.5 DTPA, no Savinase), T0",100
